Data reported in ChEMBL document CHEMBL1201862, “PubChem BioAssay data set” (2004).
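Briefly, cells in 96-well plates were exposed to five compound concentrations for 48 h, and endpoints were estimated by linear interpolation. The concentration for 50% growth inhibition is given as GI50.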 Active and inactive are the calls of the source. Cut-off read from the data, not from the text of the source: active = GI50 up to about 1.1 µM and inactive = higher.

Legend:
Test in all cases: growth of human tumour cells (NCI), 48 h
UACC-257 = test system: UACC-257
SK-MEL-2 = test system: SK-MEL-2
NCI-H522 = test system: NCI-H522
SNB-19 = test system: SNB-19
OVCAR-3 = test system: OVCAR-3
NCI-H23 = test system: NCI-H23
SK-MEL-28 = test system: SK-MEL-28
SNB-75 = test system: SNB-75
PC-3 = test system: PC-3
OVCAR-4 = test system: OVCAR-4
UO-31 = test system: UO-31
T47D = test system: T47D
HT-29 = test system: HT-29
MDA-N = test system: MDA-N
OVCAR-8 = test system: OVCAR-8
SF-295 = test system: SF-295
MCF7 = test system: MCF7
SF-268 = test system: SF-268
HCT-116 = test system: HCT-116
CCRF-CEM = test system: CCRF-CEM

Measured: GI50

CNC1=C/C(=N/C2=CC(=N/C(=C\C#N)C(C)(C)O)/OC2(C)C)OC1(C)C
inactive: UACC-257 43.3 µM | SK-MEL-2 44.4 µM | NCI-H522 13 µM | SNB-19 33 µM | OVCAR-3 32.4 µM | NCI-H23 33.3 µM | SK-MEL-28 33.2 µM | SNB-75 6.76 µM | PC-3 13.2 µM | OVCAR-4 27.2 µM | UO-31 5.77 µM | T47D 6.78 µM | HT-29 11.4 µM | MDA-N 21.3 µM | OVCAR-8 9.84 µM | SF-295 23.9 µM | MCF7 5.82 µM | SF-268 4.31 µM | HCT-116 5.15 µM | CCRF-CEM 3.08 µM

COc1ccc(-n2sc3ncccc3c2=O)cc1
inactive: UACC-257 18.7 µM | SK-MEL-2 > 100 µM | NCI-H522 17.5 µM | SNB-19 > 100 µM | OVCAR-3 23 µM | NCI-H23 19.3 µM | SK-MEL-28 23.6 µM | SNB-75 23.6 µM | PC-3 23.8 µM | OVCAR-4 > 100 µM | UO-31 19.1 µM | T47D 17.7 µM | HT-29 20.8 µM | MDA-N 21.5 µM | OVCAR-8 26.8 µM | SF-295 > 100 µM | MCF7 19.9 µM | SF-268 24.7 µM | HCT-116 17.7 µM | CCRF-CEM 8.32 µM

O=C(O)CNC(=O)c1ccccc1O [SALICYLURIC ACID]
inactive: UACC-257 > 100 µM | SK-MEL-2 > 100 µM | NCI-H522 > 100 µM | SNB-19 > 100 µM | OVCAR-3 > 100 µM | NCI-H23 > 100 µM | SK-MEL-28 > 100 µM | SNB-75 > 100 µM | PC-3 > 100 µM | OVCAR-4 > 100 µM | UO-31 > 100 µM | T47D > 100 µM | HT-29 > 100 µM | MDA-N > 100 µM | OVCAR-8 > 100 µM | SF-295 > 100 µM | MCF7 > 100 µM | SF-268 > 100 µM | HCT-116 > 100 µM | CCRF-CEM > 100 µM
